Values of other authors in US20010044101A1, “IN VITRO METHOD FOR PREDICTING THE EV[…] OF A PROTEIN TO A DRUG TARGETED THEREAGAINST” (priority 1994, published 2001).
Like-named read-outs stand apart in the source and are kept apart here.

Tested on: HIV-1

(-)-2′-deoxy-5-fluoro-3′-thiacytidine [FTC]
IC50 (fourth passage of the wild-type HIV-1 progeny, MT-4 cells, increasing FTC concentration, read-out: IC50 (50% inhibitory concentration)): > 50 µM | IC50 (passage 6 virus, tested at higher compound concentrations, read-out: IC50): > 250 µM | IC50 (second passage of the AZT-resistant HIV-1 progeny, MT-4 cells, increasing FTC concentration, read-out: IC50 (50% inhibitory concentration)): > 50 µM
